Measured values: EP1510220B1 (priority 1993, dated 1994)

Tests used:
TGF-beta [1] = assay: ELISA for TGF-beta in medium conditioned on human EX cultures; assay type: cell-based; conditions: 5 µM
Experimental: The total latent and active TGF-beta present was determined by a sandwich ELISA. Maxisorb 96-well ELISA plates (available from Gibco) were coated with neutralizing antiserum against TGF-beta (BDA19; available from R & D Systems) at 2 micrograms/cm^2 in phosphate buffered saline (PBS) overnight at room temperature. The plates were washed between each step with tris-buffered saline containing 0.1% Triton X-100 (available from Sigma Chemical Company). The plates were incubated with samples for 2 hours, with a second antibody to TGF-beta (BDA5; available from R & D Systems) at 0.1 micrograms/ml for 2 hours, anti-rabbit IgG peroxidase conjugated to antibody (available from Sigma Chemical Co.), made up according to manufacturer's instructions, for 15 minutes. Absorbances at 492 nm were converted into quantities of TGF-beta protein using a standard curve. Both conditioned media and standards were assayed in the presence of 10% FCS in DMEM. This assay was linear for TGF-beta concentrations in the range from 0.1 ng/ml to 20 ng/ml in the presence of 10% FCS in DMEM.
Cell counting, DNA synthesis assays and assays for total and active TGF-beta were performed as described in Example 7.

TGF-beta [2] = assay: TGF-beta activity in medium conditioned on rat vascular smooth muscle cells (MvLu cell assay); assay type: cell-based; conditions: cells treated for 96 hours in 10% FCS
Experimental: Assays for TGF-Beta. The TGF-beta activity present in medium conditioned on various cells was determined by DNA synthesis assay on mink lung […] (MvLu) cells; a modification of the assay described in Danielpour et al., J. Cell. Physiol., 138: 79-83, 1989. MvLu cells were subcultured at 1:5 dilution in DMEM + 10% FCS. After 24 hours, the medium was replaced with the conditioned medium to be tested in the absence or presence of the neutralizing antiserum to TGF-beta at 10 micrograms/ml. DNA synthesis during a 1 hour pulse of [^3H]-thymidine (5 microcuries/ml) was determined 23 hours after addition of the test medium. TGF-beta activity was calculated as the proportion of the inhibition of DNA synthesis which was reversed in the presence of neutralizing antibody, using a standard curve to convert the inhibition values into quantities of TGF-beta. The TGF-beta1 standards and conditioned media both contained 10% FCS in DMEM.

[3] = tested on: Vascular smooth muscle cells (BO54); assay: Scratch-migration assay with morphological toxicity grading; assay type: cell-based, baboon; design: key: - = no toxicity; +1 = minimal; +2 = mild; +3 = moderate; +4 = marked toxicity
Experimental: Scratch assays to determine the extent of smooth muscle cell migration inhibition by cytochalasin B were performed in accordance with the following protocol:
Vascular smooth muscle cells (BO54) were derived from explants of baboon aortic smooth muscle, as described in Example 1. The cells were grown in flat bottom, six well tissue culture plates, which hold about 5 ml of medium. The vascular smooth muscle cells were plated at 200,000 cells/well and placed at 37°C in a humidified 5% CO2 incubator for 18 hours. The wells were then scratched with a sterile portion of a single edge razor blade that was held by clamp or pliers and was brought aseptically into contact with the bottom of the well at a 90° angle. The cells from a small area along the scratch were removed by a sterile cotton tipped applicator while the blade was in contact with the bottom of the well. After incubation, the presence of cells in the "scratched" area is indicative of cell migration across the scratch line.
Briefly, a stock solution of cytochalasin B (Sigma Chemical Co.) in dimethyl sulfoxide (DMSO) at 1 mg/ml was prepared. Test dilutions of cytochalasin B or control medium were added. Each experiment included two sets of plates: • A set: Test agent exposure for 1, 3, 6, 8 and 10 days only; and • B set: Test agent exposure for 1, 3, 6, 8 and 10 days, followed by a seven day recovery time with control medium. Both sets of plates were fixed (10% formalin in PBS) and stained (0.02% crystal violet) at the end of the timed exposures. Test concentrations for cytochalasin B were 1, 0.1 and 0.01 µg/ml, and a negative medium control was included. Fresh medium and drug were supplied 3 times per week.
In this Table, "M" indicates Migration Grade, wherein - = no migration; +1 = minimal; +2 = mild; +3 = moderate; and +4 = marked (maximum density; limit of cell contact inhibition) migration of vascular smooth muscle cells into the cleared area adjacent to the scratch. In this Table, "T" denotes a morphological Toxicity Grade, wherein - = no toxicity; +1 = minimal; +2 = mild; +3 = moderate; and +4 = marked toxicity. The migration results are expressed as "Grade in the Cleared Area of the Well / Grade in an Undisturbed Region of the Well." The toxicity values represent a grade for all cells in each well.

CC/C(=C(\c1ccccc1)c1ccc(OCCN(C)C)cc1)c1ccccc1 [tamoxifen, trans-2-[4-(1,2-diphenyl-1-butenyl)phenoxy]-N,N-dimethylethylamine]
proportion of total TGF-beta protein that was activated (TGF-beta [1]): 55±5% | total TGF-beta protein in conditioned medium (TGF-beta [1]): 6.0 ± 2.0 ng/mL | increase of TGF-beta activity in the medium (TGF-beta [2]): > 50 fold

cytochalasin B
morphological Toxicity Grade ([3]; 7-day Recovery Post Exposure, 0.01 µg/mL, Day 1): - | morphological Toxicity Grade ([3]; 7-day Recovery Post Exposure, 0.01 µg/mL, Day 3): - | morphological Toxicity Grade ([3]; 7-day Recovery Post Exposure, 0.01 µg/mL, Day 6): - | morphological Toxicity Grade ([3]; 7-day Recovery Post Exposure, 0.01 µg/mL, Day 8): - | morphological Toxicity Grade ([3]; 7-day Recovery Post Exposure, 0.01 µg/mL, Day 10): - | morphological Toxicity Grade ([3]; 7-day Recovery Post Exposure, 0.1 µg/mL, Day 1): - | morphological Toxicity Grade ([3]; 7-day Recovery Post Exposure, 0.1 µg/mL, Day 3): - | morphological Toxicity Grade ([3]; 7-day Recovery Post Exposure, 0.1 µg/mL, Day 6): - | morphological Toxicity Grade ([3]; 7-day Recovery Post Exposure, 0.1 µg/mL, Day 8): - | morphological Toxicity Grade ([3]; 7-day Recovery Post Exposure, 0.1 µg/mL, Day 10): - | morphological Toxicity Grade ([3]; Continuous Exposure, 0.01 µg/mL, Day 1): - | morphological Toxicity Grade ([3]; Continuous Exposure, 0.01 µg/mL, Day 3): - | morphological Toxicity Grade ([3]; Continuous Exposure, 0.01 µg/mL, Day 6): - | morphological Toxicity Grade ([3]; Continuous Exposure, 0.01 µg/mL, Day 8): - | morphological Toxicity Grade ([3]; Continuous Exposure, 0.01 µg/mL, Day 10): - | morphological Toxicity Grade ([3]; Continuous Exposure, 0.1 µg/mL, Day 1): - | morphological Toxicity Grade ([3]; Continuous Exposure, 1.0 µg/mL, Day 6): +4 | morphological Toxicity Grade ([3]; Continuous Exposure, 1.0 µg/mL, Day 8): +4 | morphological Toxicity Grade ([3]; Continuous Exposure, 1.0 µg/mL, Day 10): +4
